Source: PMC12040169 (PLOS Biology, 2025)
In brackets after ≈: the same amount, converted by molar mass. Where two headings read alike, the source gives them in different places.

How the values were obtained:
[1] = molecular target: T1, acyl-modification-free ctFabH (Chlamydia trachomatis, UniProt O84242); assay: intact protein LC/MS; format: biochemical; conditions: covalent acyl-enzyme intermediate; 10 µM protein, 50 µM acyl-CoA, pH 7.0
T1 construct: gene fabH
T1 sequence (O84242 2-327): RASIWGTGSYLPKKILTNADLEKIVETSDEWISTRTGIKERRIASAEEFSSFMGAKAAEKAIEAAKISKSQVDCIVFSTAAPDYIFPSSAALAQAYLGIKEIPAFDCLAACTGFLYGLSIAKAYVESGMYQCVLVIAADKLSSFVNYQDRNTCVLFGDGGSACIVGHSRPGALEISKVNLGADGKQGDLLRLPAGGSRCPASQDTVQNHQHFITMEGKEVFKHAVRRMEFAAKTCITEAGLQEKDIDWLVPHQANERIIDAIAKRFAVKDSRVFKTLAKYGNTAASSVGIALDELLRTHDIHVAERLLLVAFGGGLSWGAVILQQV

[2] = in vitro; design: Viability of infected HeLa host cells, resazurin conversion, bulk resorufin fluorescence relative to DMSO; conditions: human, hela cells; bulk resorufin, mean of 3
[3] = molecular target: T1, acyl-modification-free ctFabH; assay: intact protein LC/MS; MS/MS of tryptic peptides; format: binding; conditions: covalent; active site cysteine; 10 µM protein, 50 µM compound, pH 7.0, 10 min to 1 h
[4] = tested on: T2, CTL2-GFP (C. trachomatis L2/434/Bu, GFP-expressing); assay: microbe, parasite or virus in culture; design: species or system HeLa; C. trachomatis growth in HeLa, dose-response, mean of bulk GFP fluorescence and imaged total inclusion area; conditions: Chlamydia trachomatis, 28.5 h; mean of GFP and inclusion area
T2 construct: L2/434/Bu, GFP-expressing
Procedure, shortened: (§1)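 GFP/resorufin bulk fluorescence read → fix → Hoechst stain → high-content imaging. Inclusion total area + count = growth proxy; nuclei count = host viability proxy. MIC calc per earlier method.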

[5] = tested on: T3, C. trachomatis L2/434/Bu expressing GFP (CTL2-GFP); assay: microbe, parasite or virus in culture; design: C. trachomatis GFP growth in infected HeLa cells, bulk GFP fluorescence normalised to DMSO; conditions: Chlamydia trachomatis, HeLa, 26 h; read-out: IC50 (µM), bulk GFP fluorescence
T3 construct: L2/434/Bu GFP intracellular growth in HeLa cells
Protocol: (§2) MICs were calculated as described above.

[6] = tested on: T3, C. trachomatis L2/434/Bu expressing GFP (CTL2-GFP); assay: microbe, parasite or virus in culture; design: C. trachomatis total inclusion area by high-content imaging, normalised to DMSO; conditions: Chlamydia trachomatis, HeLa, 28.5 h; read-out: IC50 (µM), total inclusion area
Procedure, shortened: as §1

[7] = tested on: T3, C. trachomatis L2/434/Bu expressing GFP (CTL2-GFP); assay: microbe, parasite or virus in culture; design: species or system HeLa; C. trachomatis total inclusion area by high-content imaging, normalised to DMSO; conditions: Chlamydia trachomatis, 28.5 h; read-out: MIC (µM), total inclusion area
Source text: We screened a library of 36,785 small molecules displaying drug-like properties and covering a wide chemical space (Fig 1A and S2A Data). In this process, we also complemented the assay described above with an imaging-based readout (Fig 1B). After measurements of bulk GFP and resorufin fluorescence, cells were fixed, stained with the DNA dye Hoechst, and imaged at a high-content imaging platform to detect chlamydial inclusions (GFP) and host cell nuclei (Hoechst). The total area and number of inclusions in individual wells and the number of nuclei then served as additional proxies for chlamydial growth and host cell viability. […] MICs were calculated as described above.

[8] = tested on: T3, C. trachomatis L2/434/Bu expressing GFP (CTL2-GFP); assay: microbe, parasite or virus in culture; design: species or system HeLa; C. trachomatis GFP growth in infected HeLa cells, bulk GFP fluorescence normalised to DMSO; conditions: Chlamydia trachomatis, 26 h; read-out: MIC (µM), bulk GFP fluorescence
Protocol: as §2

[9] = tested on: T2, CTL2-GFP (C. trachomatis L2/434/Bu, GFP-expressing); assay: microbe, parasite or virus in culture; design: C. trachomatis growth in HeLa, dose-response, mean of bulk GFP fluorescence and imaged total inclusion area; conditions: Chlamydia trachomatis, HeLa, 28.5 h; mean of GFP and inclusion area
Procedure, shortened: as §1

[10] = molecular target: T4, ctFabH (CTL2 FabH), His6(-fMet)SG-ctFabH (Chlamydia trachomatis, UniProt O84242); assay: continuous UV assay of acetoacetyl-CoA at […] nm; format: biochemical; conditions: covalent; 20 µM enzyme, 30 µM compound, 100 µM acetyl-CoA, 100 µM malonyl-CoA, pH 8.0, 25 °C, 50 mM MgCl2; with or without CoA preincubation
T4 construct: synthetic gene, modified pRSF-Duet1, E. coli host; partly acylated (mainly pentanoyl) as purified
T4 sequence (O84242 2-327): T1 sequence (O84242 2-327)

[11] = tested on: T5, L. iners; assay: organism not typed; design: Microbial growth in liquid dilution assay, OD600 relative to DMSO control; conditions: estimated IC50; read-out: L. iners, IC50 (µM) estimate
T5 construct: DSM 13335

[12] = tested on: T6, E. coli; assay: microbe, parasite or virus in culture; design: Microbial growth in liquid dilution assay, OD600 relative to DMSO control; conditions: Escherichia coli; estimated IC50; read-out: E. coli, IC50 (µM) estimate
T6 construct: DSM 301
Procedure, shortened: (§3)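 Dilution-format growth assay against commensal species; compound levels included 30 µM. Radial diffusion variant: 24–48 h exposure, inhibition zone read.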

[13] = tested on: T7, L. reuteri; assay: microbe, parasite or virus in culture; design: Microbial growth in liquid dilution assay, OD600 relative to DMSO control; conditions: Limosilactobacillus reuteri; estimated IC50; read-out: L. reuteri, IC50 (µM) estimate
T7 construct: DSM 20016
Procedure, shortened: as §3

[14] = tested on: T8, B. adolescentis; assay: microbe, parasite or virus in culture; design: Microbial growth in liquid dilution assay, OD600 relative to DMSO control; conditions: Bifidobacterium adolescentis; estimated IC50; read-out: B. adolescentis, IC50 (µM) estimate
T8 construct: DSM 20083
Procedure, shortened: as §3

[15] = tested on: T9, E. faecalis; assay: microbe, parasite or virus in culture; design: Microbial growth in liquid dilution assay, OD600 relative to DMSO control; conditions: Enterococcus faecalis; estimated IC50; read-out: E. faecalis, IC50 (µM) estimate
T9 construct: DSM 20478
Procedure, shortened: as §3

[16] = tested on: T10, B. thetaiotaomicron; assay: microbe, parasite or virus in culture; design: Microbial growth in liquid dilution assay, OD600 relative to DMSO control; conditions: Bacteroides thetaiotaomicron; estimated IC50; read-out: B. thetaiotaomicron, IC50 (µM) estimate
T10 construct: DSM 2079
Procedure, shortened: as §3

[17] = tested on: T11, G. vaginalis; assay: microbe, parasite or virus in culture; design: Microbial growth in liquid dilution assay, OD600 relative to DMSO control; conditions: Gardnerella vaginalis, read-out: G. vaginalis, IC50 (µM) estimate
T11 construct: DSM 4944

[18] = tested on: T12, L. crispatus; assay: microbe, parasite or virus in culture; design: Microbial growth in liquid dilution assay, OD600 relative to DMSO control; conditions: Lactobacillus crispatus; estimated IC50; read-out: L. crispatus, IC50 (µM) estimate
T12 construct: DSM 20584

[19] = tested on: T13, C. albicans; assay: microbe, parasite or virus in culture; design: Microbial growth in liquid dilution assay, OD600 relative to DMSO control; conditions: Candida albicans, read-out: C. albicans, IC50 (µM) estimate
T13 construct: DSM 1577

With `CC[C@H](C)C(=O)SCCNC(=O)CCNC(=O)[C@H](O)C(C)(C)COP(=O)(O)OP(=O)(O)OC[C@H]1O[C@@H](n2cnc3c(N)ncnc32)[C@H](O)[C@@H]1OP(=O)(O)O` [2-methylbutyryl-CoA] the “intact protein LC/MS” value [1] was “incubation of this stripped ctFabH with 2-methylbutyryl-CoA or isovaleryl-CoA”.

`O=C1Oc2nc3ccccc3cc2CN1C1CC1` [c1e] gave a viability at 28.5 h, 0.000416667 µM [2] of 95.3%, a viability at 28.5 h, 0.00125 µM [2] of 82.8% and a viability at 28.5 h, 0.00375 µM [2] of 88.7%. For the same compound, the viability at 28.5 h, 0.0123333 µM [2] was 87.6%, the viability at 28.5 h, 0.037 µM [2] was 93.9% and the viability at 28.5 h, 0.111 µM [2] was 89.2%. It also gave a viability at 28.5 h, 0.333 µM [2] of 91.7%, a viability at 28.5 h, 1 µM [2] of 89.5% and a viability at 28.5 h, 3 µM [2] of 98.2%. The viability at 28.5 h, 10 µM [2] was 103%, the viability at 28.5 h, 30 µM [2] was 46.5% and the “intact protein LC/MS; MS/MS of tryptic peptides” value [3] was “incubation with c1e generated an FabH-c1e adduct”. The MIC [4] was 0.042 µM (≈ 0.0101 µg/mL), the IC50 [5] was 0.0226 µM and the IC50 [6] was 0.0199 µM. For the same compound, the MIC [7] was 0.046 µM (≈ 0.0111 µg/mL), the MIC [8] was 0.038 µM (≈ 0.00913 µg/mL) and the IC50 [9] was 0.0213 µM. The inhibition [10] was “c1e displayed inhibitory activity towards ctFabH when added at about equimolar concentration”, the IC50 [11] was over 30 µM and the IC50 [12] was over 30 µM. The IC50 [13] was over 30 µM, the IC50 [14] was over 30 µM and the IC50 [15] was over 30 µM. It also gave an IC50 [16] of over 30 µM, an IC50 [17] of over 30 µM and an IC50 [18] of over 30 µM. The IC50 [19] was over 30 µM.
